Results taken from patent US20250296971A1, “GASTRIC INHIBITORY PEPTIDE RECEPTOR LIGANDS” (priority 2021, published 2025).
Where two headings read alike, the source gives them in different places. *1 amine or outer side, *2 acyl side, *3 side chain or, on linkers, in order; H or OH if unused. Where a SMILES comes first, the peptide text is derived from it. Bridges are numbered along the chain shown (N, C = ends). [ ]: non-standard residue; d: D form. The star is where a group is joined. X11 = O=C(CN1CCN2CCN3CCN(CC1)CC(=O)[O][In]([O]C(=O)C2)[O]C(=O)C3)NCCCOCCOCCOCCCN*; NH(CH2)5NHDOTA = O=C(O)CN1CCN(CC(=O)O)CCN(CC(=O)NCCCCCN*)CCN(CC(=O)O)CC1; Trp(5-Cl) = N[C@@H](Cc1c[nH]c2ccc(Cl)cc12)C(=O)O; Pyridine(2,6-diCH2) = c1cc(C[*:1])nc(C[*:2])c1; X7 = c1cc(CSCCN[*:2])cc(C[*:1])c1; Hyp = O=C(O)[C@@H]1C[C@@H](O)CN1; Suc = O=C(CCC(=O)[*:2])[*:1]; Thp = NC1(C(=O)O)CCOCC1; Aib = CC(C)(N)C(=O)O

Experiments:
[1] = target: T1, human GIP receptor (bioGIPR) (Homo sapiens, UniProt P48546); assay: Surface plasmon resonance (SPR) based binding assay; details: Single Cycle Kinetic mode, 25° C.; for t1/2 Category: SPR dissociation half-life; for Kd: SPR, 1:1 Langmuir binding model, read-out: pKD Category (converted)
T1 construct: Biotinylate extracellular of the human GIP receptor (bioGIPR, Proteros biostructures GmbH, lot #02/2b); purchased Proteros biostructures GmbH lot #02/2b
T1 sequence (P48546 22-138 limits assumed): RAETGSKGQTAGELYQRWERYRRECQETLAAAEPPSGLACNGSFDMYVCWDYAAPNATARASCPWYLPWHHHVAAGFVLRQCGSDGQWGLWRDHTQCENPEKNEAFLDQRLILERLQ
Experimental: Surface plasmon resonance (SPR) studies were performed using a Biacore™ T200 SPR system. Briefly, polarized light is directed towards a gold-labeled sensor surface, and minimum intensity reflected light is detected. The angle of reflected light changes as molecules bind and dissociate.
Biotinylate extracellular of the human GIP receptor (bioGIPR, Proteros biostructures GmbH, lot #02/2b) was captured on a biotin capture chip (Biotin CAPture Kit, Series S, GE Healthcare, Cat #28-9202-34). bioGIPR was diluted in Running Buffer (HBST from Xantec Analytics; […], 0.05% Tween20, 0.1% DMSO) to a final concentration 100 nM and than flushed over the Fc-capture chip to immobilized ˜3500 RUs.
Stock solutions of test compounds were prepared by dissolving each compound in DMSO. DMSO stock solution were diluted 1:1000 in Running Buffer without DMSO. Further sequential dilutions were made with Running Buffer containing 0.1% DMSO. SPR binding analyses were performed in Single Cycle Kinetic (SCK) mode at 25° C. Flow cell without immobilized bioGIPR served as reference flowcell. After each SCK run, bioGIRP and the Biotin Capture Reagent was removed with Regeneration Solution (6 M Guanidium, 0.75 M NaOH).
In between every three SCK measurements, a blank run with Running Buffer instead of test compound was included to correct for baseline drifts (double blanking method).
For each test compound, SPR raw data in the form of resonance units (RU) were plotted as sensorgrams using the Biacore™ T200 control software. The signal from the blank sensorgram was subtracted from that of the test compound sensorgram (blank corrected). The blank corrected sensorgram was corrected for baseline drift by subtracting the sensorgram of a SCK run without the test compound (running buffer only). The association rate (kon), dissociation rate (koff), dissociation constant (KD), and t1/2 were calculated from blank corrected SPR data using the 1:1 Langmuir binding model from the Biacore™ T200 evaluation software. Raw data and fit results were imported as text files in IDBS. The pKD value (negative decadic logarithm of dissociation constant) was calculated in the IDBS excel template.

[2] = target: T2, GIPR (CHO-K1-hGIPR cells) (Homo sapiens, UniProt P48546); assay: FACS binding assay; details: read-out: pIC50 Category (converted)
T2 construct: host or cells: CHO-K1
T2 sequence (P48546 22-466): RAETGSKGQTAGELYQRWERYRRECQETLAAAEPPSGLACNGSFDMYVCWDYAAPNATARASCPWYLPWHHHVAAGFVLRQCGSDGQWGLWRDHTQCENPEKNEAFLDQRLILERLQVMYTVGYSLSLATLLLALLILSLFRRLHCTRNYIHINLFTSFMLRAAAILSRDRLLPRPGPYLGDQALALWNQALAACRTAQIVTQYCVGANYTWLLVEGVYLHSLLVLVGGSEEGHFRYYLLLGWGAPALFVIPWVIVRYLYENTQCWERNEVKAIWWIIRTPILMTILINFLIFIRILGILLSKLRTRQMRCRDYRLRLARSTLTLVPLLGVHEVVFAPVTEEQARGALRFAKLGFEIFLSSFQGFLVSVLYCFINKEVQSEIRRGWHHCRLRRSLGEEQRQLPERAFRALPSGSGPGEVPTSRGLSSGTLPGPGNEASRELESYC
In short: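 Read-out: flow cytometric median fluorescence intensity, APC/Cy5 channel, plotted vs peptide conc.; 4PL fit → EC50/pEC50 or IC50/pIC50. Cells: CHO-K1-hGIPR, Accutase-detached, 500.000/mL in PBS + 1% FCS. Detection: APC-streptavidin 1 μg/mL, 30 min, on ice.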

[3] = competition with 20 nM GIP-057, 4° C., 1 hour

| t1/2 Category [1] | Kd [1] [nM] | IC50 [2, 3] [nM] | IC50 ([2]; competition with 20 nM GIP-057, 4° C. for 1 hour) [nM] | Compound |
| --- | --- | --- | --- | --- |
| A (t1/2 values>15 min) | 1 to 7.94 | – | < 10 | CC[C@H](C)[C@@H]1NC(=O)[C@H](CC(C)C)NC(=O)C2(CCOCC2)NC(=O)[C@@H](NC(=O)[C@@H](CC(C)C)NC(=O)[C@H](Cc2c[nH]cn2)NC(=O)[C@@H]2C[C@@H](O)CN2C(=O)[C@H](Cc2c[nH]c3ccc(Cl)cc23)NC(=O)[C@H](Cc2c[nH]c3ccccc23)NC(=O)[C@H](CC(=O)O)NC(C)=O)CSCc2cccc(n2)CSC[C@@H](C(N)=O)NC1=O [GIP-377, Ac-Asp-Trp-5Clw-Hyp-His-leu-[Cys(2Lut)-Thp-Leu-Ile-Cys]-NH2] (Ac-DW[Trp(5-Cl)][Hyp]H[dL]C[Thp]LIC-NH2; linker 7-11 via Pyridine(2,6-diCH2)) |
| A (t1/2 values>15 min) | < 1 | < 10 | – | CC[C@H](C)[C@@H]1NC(=O)[C@H](CC(C)C)NC(=O)C2(CCOCC2)NC(=O)[C@@H](NC(=O)[C@@H](CC(C)C)NC(=O)[C@H](CCC(=O)O)NC(=O)[C@@H]2C[C@@H](O)CN2C(=O)[C@H](Cc2c[nH]c3ccc(Cl)cc23)NC(=O)[C@H](Cc2c[nH]c3ccccc23)NC(=O)[C@H](CO)NC(C)=O)CSCc2cccc(n2)CSC[C@@H](C(N)=O)NC1=O [GIP-188, Ac-Ser-Trp-5Clw-Hyp-Glu-leu-[Cys(2Lut)-Thp-Leu-Ile-Cys]-NH2] (Ac-SW[Trp(5-Cl)][Hyp]E[dL]C[Thp]LIC-NH2; linker 7-11 via Pyridine(2,6-diCH2)) |
| A (t1/2 values>15 min) | < 1 | < 10 | – | CC[C@H](C)[C@@H]1NC(=O)[C@H](CC(C)C)NC(=O)C2(CCOCC2)NC(=O)[C@@H](NC(=O)[C@@H](CC(C)C)NC(=O)[C@H](CCC(=O)O)NC(=O)[C@@H]2C[C@@H](O)CN2C(=O)[C@H](Cc2c[nH]c3ccc(Cl)cc23)NC(=O)[C@H](Cc2c[nH]c3ccccc23)NC(=O)CCC(=O)O)CSCc2cccc(n2)CSC[C@@H](C(=O)NCCCCCNC(=O)CN2CCN(CC(=O)O)CCN(CC(=O)O)CCN(CC(=O)O)CC2)NC1=O [GIP-117, HO-Succinyl-Trp-5Clw-Hyp-Glu-leu-[Cys(2Lut)-Thp-Leu-Ile-Cys]-Ape-DOTA] (Suc-W[Trp(5-Cl)][Hyp]E[dL]C[Thp]LIC-{NH(CH2)5NHDOTA}; linker 6-10 via Pyridine(2,6-diCH2)) |

| Compound | t1/2 Category [1] | Kd [1] [nM] | IC50 [2, 3] [nM] | IC50 ([2]; competition with 20 nM GIP-057, 4° C. for 1 hour) [nM] |
| --- | --- | --- | --- | --- |
| CC[C@H](C)[C@@H]1NC(=O)[C@H](CC(C)C)NC(=O)C(C)(C)NC(=O)[C@@H](NC(=O)[C@@H](CC(C)C)NC(=O)[C@H](CCC(=O)O)NC(=O)[C@@H]2C[C@@H](O)CN2C(=O)[C@H](Cc2c[nH]c3ccc(Cl)cc23)NC(=O)[C@H](Cc2c[nH]c3ccccc23)NC(=O)[C@H](CC(=O)O)NC(=O)CCC(=O)NCCCOCCOCCOCCCNC(=O)CN2CCN3CCN4CCN(CC2)CC(=O)[O][In]([O]C(=O)C3)[O]C(=O)C4)CSCc2cccc(c2)CSCCNC1=O [GIP-151, InDOTA-Ttds-Asp-Trp-5Clw-Hyp-Glu-leu-[Cys(3MeBn)-Aib-Leu-Ile-AET]] ({X11-Suc}-DW[Trp(5-Cl)][Hyp]E[dL]C[Aib]LI; linker 7-C via X7) | A (t1/2 values>15 min) | < 1 | < 10 | – |
